Ends that are not written are not given here. Peptide text beside a SMILES is read from it. * marks the point of attachment. Cbz = O=C(OCc1ccccc1)*
Assays:
[1] = target: T1, LYMPHOCYTE Fc Receptor IgE (Homo sapiens, UniProt P06734); assay: Rosette inhibition assay, lymphocyte IgE Fc receptor; format: binding; conditions: RPMI-8866 and Daudi cell lines; relative to intact monomeric myeloma IgE at equal concentration; NS = not significantly different from 0
T1 construct: the cells expressing surface Fc receptors formed rosettes; endogenous in cells; host or cells: RPMI-8866 / Daudi
T1 sequence (P06734 1-321): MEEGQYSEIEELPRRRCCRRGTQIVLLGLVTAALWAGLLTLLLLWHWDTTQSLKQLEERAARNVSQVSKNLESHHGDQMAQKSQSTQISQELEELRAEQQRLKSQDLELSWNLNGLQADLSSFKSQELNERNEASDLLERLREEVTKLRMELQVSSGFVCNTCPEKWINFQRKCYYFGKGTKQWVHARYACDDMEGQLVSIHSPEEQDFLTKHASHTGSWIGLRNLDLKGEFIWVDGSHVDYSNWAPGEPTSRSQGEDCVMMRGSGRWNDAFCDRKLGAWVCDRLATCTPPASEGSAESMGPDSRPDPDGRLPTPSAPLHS
Description: (§1) The Fc receptor blocking activity of the subject peptides was assessed using well established techniques and procedures. In particular, a rosette assay was employed which uses either monomeric, chemically or heat aggregated human IgG or IgE obtained from human myeloma sera. (Gonzalez-Molina, et al., J. Clin. Invest., 59, 616 (1977); Spiegelberg, et al. in Immunoassays: Clinical Laboratory Techniques for the 1980's (Alan R. Liss: New York, 1980), pp. 287-300). The IgG or IgE is then adsorbed to ox-erythrocytes which has been previously treated with trypsin and pyruvic aldehyde. Fresh human cell PMNs, monocytes and basophils from a patient with basophilic chronic myelogenous leukemia or human cell lines (RPMI-8866, and Daudi for lymphocyte Fc receptors and U937 for monocyte/macrophage Fc receptors) were then incubated in the presence or absence of inhibitors (monomeric IgG or IgE or peptides) at equal concentrations for fifteen minutes before addition of the indicator oxerythrocytes. In the absence of inhibitors, the cells expressing surface Fc receptors formed rosettes, clusters of three or more indicator erythrocytes that bound to the cells by virtue of exposed Fc regions on the erythrocyte surface. Addition of inhibitor myeloma proteins or inhibitor peptides produced a reproducable reduction of rosette formation, […], phosphate buffered isotonic saline, was used alone as control and then multiplying the calculated quotient by 100.
(§2) Table 1 presents the inhibition observed by representative peptide inhibitors calculated as a percentage of the inhibition observed with intact, monomeric myeloma proteins. Thus, 50 percent inhibition implys that the peptide was 50% as inhibitory as the intact myeloma protein to which it was compared.

[2] = target: T2, MONOCYTE/MACROPHAGE Fc Receptor IgE (Homo sapiens, UniProt P06734); assay: Rosette inhibition assay, monocyte/macrophage IgE Fc receptor; format: binding; conditions: human monocytes or U937; relative to intact monomeric myeloma IgE at equal concentration; NS = not significantly different from 0
T2 construct: the cells expressing surface Fc receptors formed rosettes; endogenous in cells; host or cells: fresh human monocytes or U937
T2 sequence (P06734 1-321): T1 sequence (P06734 1-321)
Description: as §1, §2

BASOPHIL Fc Receptor IgE = target: T3, BASOPHIL Fc Receptor IgE (Homo sapiens, UniProt P12319); assay: Rosette inhibition assay, basophil IgE Fc receptor; format: binding; conditions: basophils from a patient with basophilic chronic myelogenous leukemia; relative to monomeric myeloma IgE; NS = not significantly different from 0
T3 construct: the cells expressing surface Fc receptors formed rosettes; endogenous in cells; host or cells: basophils of a patient with basophilic chronic myelogenous leukemia
T3 sequence (P12319 26-257): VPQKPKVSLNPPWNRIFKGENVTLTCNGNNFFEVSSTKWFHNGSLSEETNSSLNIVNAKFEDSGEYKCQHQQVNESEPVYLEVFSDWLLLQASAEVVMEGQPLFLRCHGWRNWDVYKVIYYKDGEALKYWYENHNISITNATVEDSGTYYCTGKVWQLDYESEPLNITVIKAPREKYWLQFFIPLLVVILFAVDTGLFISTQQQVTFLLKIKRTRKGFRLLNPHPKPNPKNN
T3 sequence (Q01362 1-244 partner): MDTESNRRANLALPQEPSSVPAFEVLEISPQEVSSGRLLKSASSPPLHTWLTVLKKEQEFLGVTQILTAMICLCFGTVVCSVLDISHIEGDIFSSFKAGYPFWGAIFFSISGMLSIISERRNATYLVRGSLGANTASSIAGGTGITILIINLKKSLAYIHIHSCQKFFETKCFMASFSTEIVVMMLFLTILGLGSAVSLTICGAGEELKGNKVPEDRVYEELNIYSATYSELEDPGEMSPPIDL
T3 sequence (P30273 19-86 partner): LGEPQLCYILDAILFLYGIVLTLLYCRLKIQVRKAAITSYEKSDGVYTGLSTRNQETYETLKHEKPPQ
Description: as §1, §2

[3] = target: T4, LYMPHOCYTE Fc Receptor IgG (Homo sapiens, UniProt P31994); assay: Rosette inhibition assay, lymphocyte IgG Fc receptor; format: binding; conditions: RPMI-8866 and Daudi cell lines; relative to intact monomeric myeloma IgG at equal concentration; NS = not significantly different from 0
T4 construct: the cells expressing surface Fc receptors formed rosettes; endogenous in cells; host or cells: RPMI-8866 / Daudi
T4 sequence (P31994 43-310): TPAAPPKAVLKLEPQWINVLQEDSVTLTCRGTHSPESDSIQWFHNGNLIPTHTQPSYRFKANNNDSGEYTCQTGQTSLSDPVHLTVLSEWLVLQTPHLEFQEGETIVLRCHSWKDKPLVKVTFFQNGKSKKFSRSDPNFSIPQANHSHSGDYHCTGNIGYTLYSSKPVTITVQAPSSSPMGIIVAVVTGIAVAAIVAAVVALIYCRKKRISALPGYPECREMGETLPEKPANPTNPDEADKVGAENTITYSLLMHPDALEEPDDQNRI
Description: as §1, §2

C1q Fc receptor = C1q Fc receptor (Homo sapiens, UniProt P02745+P02746+P02747); conditions: peptides adsorbed to erythrocytes; Johnson and Thames 1975, Boackle et al. 1979; cited from earlier work
C1 = C1 (Homo sapiens, UniProt P02745+P02746+P02747); conditions: Prystowsky et al. 1981, Lukas et al. 1981; cited from earlier work
C1, sequence (P02745 23-245): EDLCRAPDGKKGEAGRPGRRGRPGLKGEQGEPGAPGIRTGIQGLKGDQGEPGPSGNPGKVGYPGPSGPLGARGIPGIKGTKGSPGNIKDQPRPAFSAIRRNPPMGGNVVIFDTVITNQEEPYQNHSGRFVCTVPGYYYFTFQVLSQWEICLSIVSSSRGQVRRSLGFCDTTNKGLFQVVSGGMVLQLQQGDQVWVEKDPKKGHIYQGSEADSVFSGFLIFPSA
C1, sequence (P02746 28-253): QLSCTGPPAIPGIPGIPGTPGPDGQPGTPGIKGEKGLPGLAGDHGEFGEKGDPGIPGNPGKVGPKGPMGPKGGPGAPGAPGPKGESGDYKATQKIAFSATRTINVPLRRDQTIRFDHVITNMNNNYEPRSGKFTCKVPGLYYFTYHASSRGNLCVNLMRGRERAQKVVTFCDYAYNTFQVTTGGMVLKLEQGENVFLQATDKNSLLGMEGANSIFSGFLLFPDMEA
C1, sequence (P02747 29-245): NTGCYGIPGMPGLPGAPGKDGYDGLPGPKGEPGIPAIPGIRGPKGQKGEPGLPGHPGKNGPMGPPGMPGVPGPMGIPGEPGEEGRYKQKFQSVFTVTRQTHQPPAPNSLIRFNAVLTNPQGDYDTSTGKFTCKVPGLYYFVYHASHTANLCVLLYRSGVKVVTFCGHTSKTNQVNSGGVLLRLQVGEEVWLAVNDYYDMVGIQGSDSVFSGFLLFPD
C1, sequence (P00736 18-705 partner): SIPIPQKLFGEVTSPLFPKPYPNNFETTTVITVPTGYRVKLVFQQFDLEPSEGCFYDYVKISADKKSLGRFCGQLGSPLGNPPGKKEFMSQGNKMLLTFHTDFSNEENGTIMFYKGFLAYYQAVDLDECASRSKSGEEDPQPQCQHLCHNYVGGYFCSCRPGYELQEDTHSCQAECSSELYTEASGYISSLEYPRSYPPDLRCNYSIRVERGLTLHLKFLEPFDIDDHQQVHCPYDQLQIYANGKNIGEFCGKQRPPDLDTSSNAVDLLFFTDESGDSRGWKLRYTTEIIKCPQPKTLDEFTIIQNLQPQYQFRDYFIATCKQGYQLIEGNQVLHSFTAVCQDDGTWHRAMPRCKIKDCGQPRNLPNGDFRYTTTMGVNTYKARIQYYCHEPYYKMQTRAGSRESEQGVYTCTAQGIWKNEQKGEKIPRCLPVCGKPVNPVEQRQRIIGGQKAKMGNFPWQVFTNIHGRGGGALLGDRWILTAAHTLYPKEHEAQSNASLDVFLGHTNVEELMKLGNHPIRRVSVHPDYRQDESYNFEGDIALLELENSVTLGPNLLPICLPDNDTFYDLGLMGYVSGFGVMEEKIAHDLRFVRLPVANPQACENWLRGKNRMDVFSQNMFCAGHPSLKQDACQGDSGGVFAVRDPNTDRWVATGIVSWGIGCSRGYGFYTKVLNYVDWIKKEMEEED
C1, sequence (P09871 16-688 partner): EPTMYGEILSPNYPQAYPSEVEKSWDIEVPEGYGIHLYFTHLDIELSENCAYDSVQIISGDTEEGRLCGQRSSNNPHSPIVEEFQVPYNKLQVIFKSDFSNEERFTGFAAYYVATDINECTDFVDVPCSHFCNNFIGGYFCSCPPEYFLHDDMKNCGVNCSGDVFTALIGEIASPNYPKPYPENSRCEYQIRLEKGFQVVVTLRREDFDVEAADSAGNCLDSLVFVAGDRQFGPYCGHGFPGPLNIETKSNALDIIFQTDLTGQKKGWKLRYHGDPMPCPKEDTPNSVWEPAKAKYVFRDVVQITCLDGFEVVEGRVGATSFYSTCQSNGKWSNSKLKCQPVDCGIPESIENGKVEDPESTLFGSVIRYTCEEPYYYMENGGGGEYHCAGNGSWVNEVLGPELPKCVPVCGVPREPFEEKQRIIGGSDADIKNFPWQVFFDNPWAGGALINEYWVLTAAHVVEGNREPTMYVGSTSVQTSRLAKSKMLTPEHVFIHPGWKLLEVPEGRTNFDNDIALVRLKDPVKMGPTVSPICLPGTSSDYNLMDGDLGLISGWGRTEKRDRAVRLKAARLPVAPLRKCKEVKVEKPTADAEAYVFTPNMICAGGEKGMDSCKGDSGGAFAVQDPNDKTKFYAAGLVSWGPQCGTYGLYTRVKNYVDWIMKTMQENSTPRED

C1q Fc receptor, sequence (P02745 23-245): as the sequence (P02745 23-245) above
C1q Fc receptor, sequence (P02746 28-253): as the sequence (P02746 28-253) above
C1q Fc receptor, sequence (P02747 29-245): as the sequence (P02747 29-245) above
C1q Fc receptor, sequence (P00736 18-705 partner): as the sequence (P00736 18-705 partner) above
C1q Fc receptor, sequence (P09871 16-688 partner): as the sequence (P09871 16-688 partner) above

Rosette inhibition expressed as percent inhibition by monomeric IgE; monocyte/macrophage Fc receptor, IgE [2] [%] | Rosette inhibition expressed as percent inhibition by monomeric IgE; basophil Fc receptor, IgE (BASOPHIL Fc Receptor IgE) | Rosette inhibition expressed as percent inhibition by monomeric IgG; lymphocyte Fc receptor, IgG [3] [%] | Compound | complement activating ability (C1q-mediated cell lysis) (C1q Fc receptor) | also measured
95 | 100% | 34 | TVLHQNWLDGK |  | Rosette inhibition expressed as percent inhibition by monomeric IgE; lymphocyte Fc receptor, IgE [1]: 95%
 |  |  | EWYERG | less active | 
87 | 101% | 95 | PDARHS [Pro--Asp--Ala--Arg--His--Ser, Pro-Asp-Ala-Arg-His-Ser] |  | Rosette inhibition expressed as percent inhibition by monomeric IgE; lymphocyte Fc receptor, IgE [1]: 98%
58 | 80% | 36 | TTQPR [Thr--Thr--Gln--Pro--Arg] |  | 
 |  |  | VHEAKAKPGR | less active | 
 | 106% |  | NCCCC[C@H](NC(=O)[C@H](CCC(N)=O)NC(=O)[C@@H](N)CCC(=O)O)C(=O)N[C@@H](CC(=O)O)C(=O)O [Glu--Gln--Lys--Asp] (H-EQKD-OH) |  | 
 |  |  | KADWYVDG | about as effective in activating C1q-mediated cell lysis as immune complexes formed by heat aggregated IgG | 
 |  |  | Ac-Phe-Asn-Trp-Tyr-Val (Ac-FNWYV) |  | inhibition of C1-mediated hemolysis (C1): less active
 |  |  | KFEWYVEGVE | less active | 
 |  |  | TrpTyrValAspGly (WYVDG; printed: TrpTyrValAspGly) | less active | 
 |  |  | ZValGluTrpGly (Cbz-VEWG) | less active | 
 | 94% | 16 | NCCCC[C@H](NC(=O)[C@H](CO)NC(=O)[C@H](CCCCN)NC(=O)[C@@H](N)CC(=O)O)C(=O)O [Asp--Lys--Ser--Lys] (H-DKSK-OH) |  | 
 |  |  | KFDWAVDG | less active | 
 | 74% |  | DKSRAQQGN [Asp--Lys--Ser--Arg--Ala--Gln--Gln--Gly--Asn] |  | 
33 | 89% | 29 | YSKLTVDKSR [reference compound] |  | 
 |  |  | ZAsnTrpTyrVal (Cbz-NWYV) | less active | 

Rosette inhibition expressed as percent inhibition by monomeric IgE; monocyte/macrophage Fc receptor, IgE [2] [%] | Rosette inhibition expressed as percent inhibition by monomeric IgE; basophil Fc receptor, IgE (BASOPHIL Fc Receptor IgE) | Rosette inhibition expressed as percent inhibition by monomeric IgG; lymphocyte Fc receptor, IgG [3] [%] | Compound | complement activating ability (C1q-mediated cell lysis) (C1q Fc receptor) | also measured
 |  |  | YDYYVDG | less active | 
 |  |  | TyrGluArgGly (YERG; printed: TyrGluArgGly) | less active | 
87 | 133% | 84 | TISKAKGQPR |  | Rosette inhibition expressed as percent inhibition by monomeric IgE; lymphocyte Fc receptor, IgE [1]: 106%
 |  |  | Trp-Leu | inactive | 
 |  |  | FNWYVDGVQVHNAKTK |  | inhibition of C1-mediated hemolysis (C1): less active
 |  |  | GVQVHNAKTK |  | inhibition of C1-mediated hemolysis (C1): approximately as active as inhibitors as intact monomeric IgG
20 | 41% | 49 | C[C@H](NC(=O)[C@H](CCCNC(=N)N)NC(=O)[C@@H](N)[C@@H](C)O)C(=O)N[C@@H](CCC(=O)O)C(=O)O [Thr--Arg--Ala--Glu, Thr-Arg-Ala-Glu] (H-TRAE-OH) |  | 
103 | ~ 130% | 92 | PDARHSTTQPR [Pro--Asp--Ala--Arg--His--Ser--Thr--Thr--Gln--Pro--Arg] |  | Rosette inhibition expressed as percent inhibition by monomeric IgE; lymphocyte Fc receptor, IgE [1]: 100%
 |  |  | KYDWYVDG | less active | 
 |  |  | KFDAYVDG | less active | 
48 | 37% |  | DSNPR [Asp--Ser--Asn--Pro--Arg] |  | 
 |  |  | YVEWGERG | less active | 
38 | 89% | 86 | N=C(N)NCCC[C@H](NC(=O)[C@H](CO)NC(=O)[C@H](CCCCN)NC(=O)[C@@H](N)CC(=O)O)C(=O)O [Asp--Lys--Ser--Arg, Asp-Lys-Ser-Arg] (H-DKSR-OH) |  | Rosette inhibition expressed as percent inhibition by monomeric IgE; lymphocyte Fc receptor, IgE [1]: 23%
55 | 89% | 94 | CC(=O)N[C@@H](CCC(N)=O)C(=O)N1CCC[C@H]1C(=O)N[C@@H](CCC(=O)O)C(=O)N[C@@H](CC(N)=O)C(=O)O [Ac--Gln--Pro--Glu--Asn, Ac-Gln-Pro-Glu-Asn] (Ac-QPEN-OH) |  | 
87 | 110% | 100 | RSTTKTSGPR |  | Rosette inhibition expressed as percent inhibition by monomeric IgE; lymphocyte Fc receptor, IgE [1]: 87%
 |  |  | Tyr-Glu-Ala-Gly (YEAG; printed: Tyr-Glu-Ala-Gly) | inactive | 

Compound | Rosette inhibition expressed as percent inhibition by monomeric IgE; monocyte/macrophage Fc receptor, IgE [2] [%] | Rosette inhibition expressed as percent inhibition by monomeric IgE; basophil Fc receptor, IgE (BASOPHIL Fc Receptor IgE) | Rosette inhibition expressed as percent inhibition by monomeric IgG; lymphocyte Fc receptor, IgG [3] [%] | complement activating ability (C1q-mediated cell lysis) (C1q Fc receptor) | also measured
SVMHEALHNHYTQK [Ser--Val--Met--His--Glu--Ala--Leu--His--Asn--His--Tyr--Thr--Gln--Lys] | 28 | 74% |  |  | 
TRAEAEQKD [Thr--Arg--Ala--Glu--Ala--Glu--Gln--Lys--Asp] | 21 | 108% |  |  | 
